How the values were obtained:
Format in all cases: in vivo
[1] = system: rapeseed; experiment: Evaluation Example 4: Comparison of Elongated Plant Height of Rapeseed; conditions: petri dish, 5 mL, 24° C, 7th day after seeding, EGT 1 mM and/or component (A) 1 mM
Procedure: The plant growth regulators of Examples 7 and 8 and Comparative Examples 10 to 12 were prepared so as to attain the concentrations indicated in Table 4 below. EGT, Asn and Lys were commercially available products, and pure water was used as a solvent.
(§1) Into a 9 cm petri dish on which filter paper was spread, 5 mL of the plant growth regulator was added. Ten seeds of rapeseed were sown per one petri dish. In a thermostatic chamber set at room temperature of 24° C., the light period was 16 hours and the dark period was 8 hours. The light conditions were set using a fluorescent lamp (PLANT FLEC, 40 W LED fluorescent lamp for plant growth, electric bulb color, available from Nippon Medical and Chemical Instruments Co., Ltd.) such that the light intensity was 5000 lx in the central part under irradiation with the fluorescent lamp.
(§2) The plant height of the rapeseed on the 7th day after seeding was evaluated.

[2] = system: wheat; experiment: Evaluation Example 15: Comparison of Elongated Plant Height of Wheat; conditions: petri dish, 5 mL, 24° C, 7th day after seeding, EGT 1 mM and/or carnitine 10 mM
Procedure: The plant growth regulators of Example 36 and Comparative Examples 50 and 51 were prepared so as to attain the concentrations indicated in Table 15 below. EGT and carnitine were commercially available products, and pure water was used as a solvent.
(§3) Into a 9 cm petri dish on which filter paper was spread, 5 mL of the plant growth regulator was added. Ten seeds of wheat were sown per one petri dish. In a thermostatic chamber set at room temperature of 24° C., the light period was 16 hours and the dark period was 8 hours. The light conditions were set using a fluorescent lamp (PLANT FLEC, 40 W LED fluorescent lamp for plant growth, electric bulb color, available from Nippon Medical and Chemical Instruments Co., Ltd.) such that the light intensity was 5000 lx in the central part under irradiation with the fluorescent lamp.
(§4) The plant height of the wheat on the 7th day after seeding was evaluated.

[3] = system: rapeseed; experiment: Evaluation Example 3: Comparison of Elongated Plant Height of Rapeseed; conditions: petri dish, 5 mL, 24° C, 7th day after seeding, EGT 1 mM and/or Arg 1 mM
Procedure: The plant growth regulators of Example 6 and Comparative Examples 8 and 9 were prepared so as to attain the concentrations indicated in Table 3 below. EGT and Arg were commercially available products, and pure water was used as a solvent.
Into a 9 cm petri dish on which filter paper was spread, 5 mL of the plant growth regulator was added. Seven seeds of rapeseed were sown per one petri dish. In a thermostatic chamber set at room temperature of 24° C., the light period was 16 hours and the dark period was 8 hours. The light conditions were set using a fluorescent lamp (PLANT FLEC, 40 W LED fluorescent lamp for plant growth, electric bulb color, available from Nippon Medical and Chemical Instruments Co., Ltd.) such that the light intensity was 5000 lx in the central part under irradiation with the fluorescent lamp.
as §2

[4] = system: wheat; experiment: Evaluation Example 16: Comparison of Elongated Plant Height of Wheat; conditions: petri dish, 5 mL, 24° C, 7th day after seeding, EGT 1 mM and/or trehalose 0.01 or 0.1 mM
Procedure: The plant growth regulators of Examples 37 and 38 and Comparative Examples 52 to 54 were prepared so as to attain the concentrations indicated in Table 16 below. EGT and trehalose were commercially available products, and pure water was used as a solvent.
as §3, §4

[5] = system: tomato (Micro Tom); experiment: Evaluation Example 12: Comparison of Number of Flowers and Buds of Tomato; conditions: 50 mL on 32nd, 34th, 36th days, evaluated 83rd day after seeding, EGT 0.1 mM and/or component (A) 0.1 mM
Procedure: The plant growth regulators of Examples 32 and 33 and Comparative Examples 43 to 45 were prepared so as to attain the concentrations indicated in Table 12 below. EGT, Arg and Glu were commercially available products, and pure water was used as a solvent.
In a plastic pot having a diameter of 135 mm and a height of 110 mm, 1 kg of granular soil (Kumiai horticultural soil) was placed, and one individual tomato (Micro Tom) was sown per one pot.
The tomato was managed in a greenhouse set at room temperature of 25° C. Chemical treatment was started 5 weeks after seeding. More specifically, on the 32nd, 34th, and 36th days after seeding, 50 mL of the plant growth regulator was added.
On the 83rd day after seeding, the number of flowers and buds was evaluated.

[6] = system: rapeseed; experiment: Evaluation Example 7: Comparison of Elongated Plant Height of Rapeseed; conditions: petri dish, 5 mL, 24° C, 7th day after seeding, EGT 0.5 mM and/or uracil 0.5 mM
Procedure: The plant growth regulators of Example 18 and Comparative Examples 24 and 25 were prepared so as to attain the concentrations indicated in Table 7 below. EGT and uracil were commercially available products, and pure water was used as a solvent.
as §1, §2

[7] = system: wheat; experiment: Evaluation Example 9: Comparison of Elongated Plant Height of Wheat; conditions: petri dish, 5 mL, 24° C, 7th day after seeding, EGT 0.5 mM and/or component (A) 0.5 mM
Procedure: The plant growth regulators of Examples 21 and 22 and Comparative Examples 29 to 31 were prepared so as to attain the concentrations indicated in Table 9 below. EGT, trehalose and inositol were commercially available products, and pure water was used as a solvent.
as §3, §4

[8] = system: wheat; experiment: Evaluation Example 8: Comparison of Elongated Plant Height of Wheat; conditions: petri dish, 5 mL, 24° C, 7th day after seeding, EGT 0.5 mM and/or component (A) 0.5 mM
Procedure: The plant growth regulators of Examples 19 and 20 and Comparative Examples 26 to 28 were prepared so as to attain the concentrations indicated in Table 8 below. EGT, guanine and thymine were commercially available products, and pure water was used as a solvent.
as §3, §4

NC(=O)C[C@H](N)C(=O)O [compound 11, L-asparagine]
Elongated plant height, ratio to untreated control [1]: 1.1

C[N+](C)(C)CC(O)CC(=O)[O-] (stereo not drawn) [Comparative Example 51, carnitine]
Elongated plant height, ratio to untreated control [2]: 1.0

N=C(N)NCCC[C@H](N)C(=O)O [Comparative Example 9, L-arginine]
Elongated plant height, ratio to untreated control [3]: 0.9

OC[C@H]1O[C@H](O[C@H]2O[C@H](CO)[C@@H](O)[C@H](O)[C@H]2O)[C@H](O)[C@@H](O)[C@@H]1O [compound 54, trehalose]
Elongated plant height, ratio to untreated control [4]: 0.9

C[N+](C)(C)[C@@H](Cc1c[nH]c(=S)[nH]1)C(=O)[O-] [Comparative Example 43, L-(+)-ergothioneine]
Total number of flowers and buds, ratio to untreated control [5]: 1.1

C[N+](C)(C)[C@@H](Cc1c[nH]c(=S)[nH]1)C(=O)[O-] [Comparative Example 8, L-(+)-ergothioneine]
Elongated plant height, ratio to untreated control [3]: 1.2

C[N+](C)(C)[C@@H](Cc1c[nH]c(=S)[nH]1)C(=O)[O-] [Comparative Example 24, L-(+)-ergothioneine]
Elongated plant height, ratio to untreated control [6]: 1.1

N[C@@H](CCC(=O)O)C(=O)O [compound 45, L-glutamic acid]
Total number of flowers and buds, ratio to untreated control [5]: 1.0

C[N+](C)(C)[C@@H](Cc1c[nH]c(=S)[nH]1)C(=O)[O-] [Comparative Example 52, L-(+)-ergothioneine]
Elongated plant height, ratio to untreated control [4]: 1.1

O[C@H]1[C@H](O)[C@@H](O)[C@H](O)[C@@H](O)[C@H]1O [compound 31, inositol]
Elongated plant height, ratio to untreated control [7]: 0.9

C[N+](C)(C)[C@@H](Cc1c[nH]c(=S)[nH]1)C(=O)[O-] [Comparative Example 50, L-(+)-ergothioneine]
Elongated plant height, ratio to untreated control [2]: 1.1

NCCCC[C@H](N)C(=O)O [compound 12, L-lysine]
Elongated plant height, ratio to untreated control [1]: 0.6

C[N+](C)(C)[C@@H](Cc1c[nH]c(=S)[nH]1)C(=O)[O-] [Comparative Example 29, L-(+)-ergothioneine]
Elongated plant height, ratio to untreated control [7]: 1.1

C[N+](C)(C)[C@@H](Cc1c[nH]c(=S)[nH]1)C(=O)[O-] [Comparative Example 10, L-(+)-ergothioneine]
Elongated plant height, ratio to untreated control [1]: 1.1

Cc1c[nH]c(=O)[nH]c1=O [compound 28, thymine]
Elongated plant height, ratio to untreated control [8]: 0.9

O=c1cc[nH]c(=O)[nH]1 [Comparative Example 25, uracil]
Elongated plant height, ratio to untreated control [6]: 1.0

N=C(N)NCCC[C@H](N)C(=O)O [compound 44, L-arginine]
Total number of flowers and buds, ratio to untreated control [5]: 1.0

OC[C@H]1O[C@H](O[C@H]2O[C@H](CO)[C@@H](O)[C@H](O)[C@H]2O)[C@H](O)[C@@H](O)[C@@H]1O [compound 53, trehalose]
Elongated plant height, ratio to untreated control [4]: 1.0

Nc1nc2nc[nH]c2c(=O)[nH]1 [compound 27, guanine]
Elongated plant height, ratio to untreated control [8]: 0.9

OC[C@H]1O[C@H](O[C@H]2O[C@H](CO)[C@@H](O)[C@H](O)[C@H]2O)[C@H](O)[C@@H](O)[C@@H]1O [compound 30, trehalose]
Elongated plant height, ratio to untreated control [7]: 1.0

C[N+](C)(C)[C@@H](Cc1c[nH]c(=S)[nH]1)C(=O)[O-] [Comparative Example 26, L-(+)-ergothioneine]
Elongated plant height, ratio to untreated control [8]: 1.1
